The text below walks through data of US10150948B2, “Compositions and methods for producing and administering brown adipocytes” (The Regents of the University of California, priority 2013, dated 2018).

The subject of experiment [1] is WAT derived ADMSCs. Put plainly: Neutral lipid staining of ADMSCs differentiated on adhesion peptide coated TCPS. Format: cell-based, mouse. To be noted: neutral lipid staining after differentiation on peptide coated TCPS. Here is the method:
Fat depots from L2G85 (FVB/NJ) or C57BL6/J mice, perigonadal (visceral) or inguinal (subcutaneous) respectively, were isolated post mortem from 3 month old mice. These fat depots were washed with sterile phosphate buffered saline (PBS) for 10 minutes. The tissues were then minced with scissors into fragments smaller than 1 mm and digested in 0.1% type II collagenase (Gibco) in DMEM with 5% bovine serum albumin (BSA) (Fisher) for 1 hr at room temperature (RT) on an orbital shaker. The digest was then filtered through sterile gauze and centrifuged at 400×RCF for 10 minutes. The cell pellet was then suspended in an erythrocyte lysis buffer 155 mM NH4Cl, 5.7 mM K2HPO4, 0.1 mM EDTA in ultrapure water for 10 m minutes. The resulting suspension was then centrifuged at 400×RCF for 10 minutes to pellet the ADMSCs. The resulting ADMSC pellet was suspended in DMEM with 10% fetal bovine serum (FBS) and 1% P/S and plated on TCPS. […]
FIGS. 1A-F: Effects of adhesion ligands ADMSC differentiation. […] C) Quantitative rtPCR analysis of UCP1 expression of WAT derived murine ADMSCs that were differentiated on indicated adhesion substrate coated TCPS (see Tab. […] D) Quantitative rtPCR analysis of UCP1 expression of WAT derived ADMSCs differentiated on mixtures of Ag73 and C16 (n=6). […] F) Quantitative rtPCR analysis of UCP1 expression of WAT derived ADMSCs differentiated on mixtures of Ag73 and Ag32 (n=6).

Experiment [2] concerns WAT derived murine ADMSCs. Put plainly: UCP1 expression (quantitative rtPCR) of ADMSCs differentiated on adhesion peptide coated TCPS. Format: cell-based, mouse. To be noted: ADMSCs differentiated on single peptide coated TCPS; vs uncoated TCPS. The protocol:
Fat depots from L2G85 (FVB/NJ) or C57BL6/J mice, perigonadal (visceral) or inguinal (subcutaneous) respectively, were isolated post mortem from 3 month old mice. These fat depots were washed with sterile phosphate buffered saline (PBS) for 10 minutes. The tissues were then minced with scissors into fragments smaller than 1 mm and digested in 0.1% type II collagenase (Gibco) in DMEM with 5% bovine serum albumin (BSA) (Fisher) for 1 hr at room temperature (RT) on an orbital shaker. The digest was then filtered through sterile gauze and centrifuged at 400×RCF for 10 minutes. […]
Purified peptides were suspended at 20 μM in ultrapure water with 1% P/S. In 24 well TC plates (BD Falcon, 353047), 20 μM peptide suspensions were added to each well. […] The adherent and non adherent cells were then counted with the CyQuant kit (Invitrogen).
Tissue samples suspended in RNALater ICE (Ambion) and stored at −20° C. mRNA was isolated from RNALater ICE stabilized tissues or directly from in vitro cultures of monolayers or cell laden hydrogels with Trizol reagent (Ambion). […] Established delta delta CT method was employed to comparatively assess mRNA quantity. […]
FIGS. 1A-F: Effects of adhesion ligands ADMSC differentiation. […] C) Quantitative rtPCR analysis of UCP1 expression of WAT derived murine ADMSCs that were differentiated on indicated adhesion substrate coated TCPS (see Tab. […]

With “CGGKAFDITYVRLKF [C16, α5β1/3 integrin-engaging ligand, laminin γ1 chain peptide with N-terminal CGG]”, the lipid accumulation result in experiment [1] is “significantly greater lipid accumulation”. Consider “CGGRKRLQVQLSIRT [AG73, adhesion ligand for α6 integrins and syndecan-1, laminin a1 chain peptide with N-terminal CGG]”, for which, in experiment [2], the UCP1 expression result is on record as “particularly efficient in driving UCP1 expression”.
